The source of these data is PubChem BioAssay (NCI).

Some test systems named below: MALME-3M melanoma; A498 renal; MDA-MB-231 breast; NCI-H226 lung; SK-MEL-2 melanoma; K-562 leukemia; M14 melanoma; SR leukemia; ACHN renal; SF-268 CNS; SF-539 CNS; UACC-257 melanoma; SF-295 CNS; MDA-N; TK-10 renal; A549 NSCLC; LOX IMVI melanoma.
What all share (experiment): NCI tumour cell line growth inhibition, 48 h

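Tested at 5 concentrations; 48 h exposure; 96-well plates; endpoints linearly interpolated, else capped at highest concentration. TGI denotes the concentration required for complete inhibition of growth.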

Take `C[C@H]1S[C@@H](c2ccc(Cl)cc2Cl)N(NC(=O)c2ccncc2)C1=O`: the TGI with MALME-3M melanoma, in the experiment with A498 renal, in the experiment with MDA-MB-231 breast, with NCI-H226 lung, in the experiment with SK-MEL-2 melanoma and in the experiment on K-562 leukemia was above 100 µM in each case. The TGI in the experiment with M14 melanoma and in the experiment with SR leukemia was above 100 µM in each case.

Turning to `COC1/C=C/C(C)C(O)CC(O)/C=C/C(C)C(C(C)C(OC)C(C)CCC(=O)C(C)C(C/C=C/N(C)C=O)OC)OC(=O)/C=C/C=C(\C)CC(OC)CC2=CC(=O)O[C@@H](C(C)C(OC)C1)[C@H]2O` (some centres not stated), the TGI in the experiment on ACHN renal was 0.13 µM; with SF-268 CNS, 0.137 µM; in the experiment on SF-539 CNS, 0.0172 µM; in the experiment with A498 renal it was 0.0164 µM; with UACC-257 melanoma, 0.169 µM; in the experiment with SF-295 CNS, below 0.005 µM. Besides, the TGI with MDA-N was 0.136 µM; with TK-10 renal it was 0.0551 µM; in the experiment with M14 melanoma it was below 0.005 µM; in the experiment with SR leukemia it was 24.6 µM; in the experiment on A549 NSCLC, 0.235 µM.

For the molecule `COc1nc(Cl)nc(N[C@H](C)c2c3ccccc3cc3ccccc23)n1`, the TGI in the experiment with ACHN renal is 31.7 µM; in the experiment with SF-268 CNS it was 39.7 µM; with SF-539 CNS it was 33.8 µM; with MDA-MB-231 breast it was 34.4 µM; with UACC-257 melanoma, 30.2 µM; in the experiment on NCI-H226 lung, 31.6 µM. Moreover, the TGI in the experiment on SF-295 CNS stood at 31 µM; in the experiment on SK-MEL-2 melanoma, 31.6 µM; in the experiment with K-562 leukemia it was 97.8 µM; with LOX IMVI melanoma, 33.2 µM; in the experiment on MDA-N, 8.99 µM; with TK-10 renal, 14.8 µM. This molecule showed a TGI in the experiment with A549 NSCLC of 96.2 µM.
